This passage reports GI50 and TGI results from PubChem BioAssay (NCI).

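Test compounds were applied to cells in 96-well plates for 48 hours at 5 doses. GI50 = concentration required for 50% inhibition of growth. TGI: total growth inhibition.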 Some results are limits rather than exact numbers.

In the test the test system is MDA-MB-468 breast. Briefly: inhibition of tumour cell growth, NCI panel, 48 h.
For the compound `N#C[C@@H]1C(n2ccc(N)nc2=O)O[C@H](CO)[C@H]1O` (stereo not given in full), the GI50 was over 73.1 µM and the TGI was over 100 µM. `Cn1cc(CNCC2CCN(c3ncc(C(=O)NO)cn3)CC2)c2ccccc21`: the GI50 is under 0.01 µM and the TGI amounted to 0.476 µM. In the same order, the values of `CCCCCCN(CCCCCC)CC(O)c1ccc2c3c(cccc13)CC2` (stereo not given) are 3.43 µM and 14.4 µM.

On to `Cc1cc(-c2nnc3n2CCCCC3)c(C)n1-c1ccc(Cl)c(Cl)c1`, for which the GI50 is 2.66 µM and the TGI was 14 µM. The corresponding values for `O=C1CC(=O)OC(c2ccc([N+](=O)[O-])cc2)O1` are 1.67 µM and 3.48 µM. The corresponding values for `COC(=O)CCC1=C(C)/C(=C/c2[nH]c(-c3ccc[nH]3)cc2OC)N=C1C` are 1.14 µM and 3.18 µM. `CSc1ccc(/C=C2\C=C(CC(=O)NCc3ccc(C(=O)c4ccccc4)cc3)c3cc(F)ccc32)cc1`: the GI50 is 0.0199 µM and the TGI was found to be 7.4 µM. In the case of `CCC(c1cccc(O)c1)C(CC)c1cccc(O)c1` (stereo not given), the GI50 was 0.028 µM and the TGI is 4.37 µM. As for `CC(C)[C@H]1C(=O)N[C@@H](CCCN=C(N)N)C(=O)NCC(=O)N[C@@H](CC(=O)O)C(=O)N[C@H](Cc2ccccc2)C(=O)N1C`, the GI50 is 0.403 µM and the TGI was determined as 2.18 µM. For the compound `COc1ccc(C(=O)N2c3ccccc3Sc3ccccc32)c(C(F)(F)F)c1`, the GI50 was 0.364 µM and the TGI was 41.5 µM. With `NC(=O)c1ccc(C2C3=C(CCCC3=O)OC3=C2C(=O)c2ccccc2C3=O)cc1` (stereo not given), the GI50 was 0.201 µM and the TGI was determined as 0.649 µM. In the same order, the values of `CCN(CCNc1ccc(C)c2sc3ccccc3c(=O)c12)CC(C)(C)O` are 1.74 µM and 5.03 µM.

For `COC(=O)CCCCCN=Cc1c(O)c(O)c(C(C)C)c2cc(C)c(-c3c(C)cc4c(C(C)C)c(O)c(O)c(C=NCCCCCC(=O)OC)c4c3O)c(O)c12`, the GI50 was 1.97 µM and the TGI was 12.9 µM. In the same order, the values of `COc1cc(S(C)(=O)=O)ccc1Nc1nc2ccc(-c3ccc(NC(=O)[C@H](C)c4ccc(F)cc4)cc3)cn2n1` are 68.6 µM and over 100 µM. The corresponding values for `C/C(=N\NC(N)=S)c1nc2ccc(Cl)cc2[nH]1` are 1.97 µM and 19.1 µM. In the case of `CC1=C2C(=O)[C@](C)(CO)C=C2C(=O)[C@](C)(O)C12CC2`, the GI50 is 1.52 µM and the TGI is 3.16 µM.

As for `CC(=O)Nc1ccc(NC(=O)Nc2cccc(-c3nc(-c4ccc(NC(=O)c5cccs5)cc4Cl)no3)c2)cc1C(F)(F)F`, the GI50 was 0.449 µM and the TGI is 1.73 µM. The corresponding values for `Cc1c2ccc(N(C)c3ccnc(Nc4cccc(S(N)(=O)=O)c4)n3)cc2nn1C` are 8.21 µM and over 23.5 µM. In the same order, the values of `COc1cc2nc(-c3ccc(C(F)(F)F)cc3)cc(OCCCN3CCCCC3)c2cc1OC` are 1.03 µM and 3.29 µM.

As for `COc1ccc(C2CC(n3nnnc3-c3ccccc3)=NN2)cc1` (stereo not given), the GI50 is 3.98 µM and the TGI stood at 47.6 µM.

Consider `CCOc1c(Cl)cc(CNC(C)C(O)c2ccccc2)cc1OC` (stereo not given), for which the GI50 was 16.7 µM and the TGI was 33.2 µM.

As to `Cc1ccc(NC(=O)Cn2c(Br)nc3c2c(=O)n(C)c(=O)n3C)cc1`, the GI50 is 10.1 µM and the TGI worked out at 23.2 µM.

Take `COc1ccc(-c2cn[nH]c2-c2cc(OC)c3c(c2)OCCO3)cc1`: the GI50 is 0.115 µM and the TGI worked out at 2.76 µM. Take `Cc1cc(N/N=C/c2nc(-c3ccc(Cl)cc3)oc2C)c2cc(Cl)ccc2n1`: the GI50 is 1.78 µM and the TGI was 3.55 µM.

`COc1ccc(CN2c3ccccc3CCc3ccccc32)cc1F`: the GI50 was 0.399 µM and the TGI is over 100 µM. For `CCn1c2ccc(/C=N/OCCCN(C)C)cc2c2cc(/C=N/OCCCN(C)C)ccc21`, the GI50 is 1.38 µM and the TGI was found to be 3.05 µM.

Regarding `CN(C)C(=O)O[C@@H]1CN[C@@H](C#Cc2cc3ncnc(Nc4ccc(OCc5cccc(F)c5)c(Cl)c4)c3s2)C1`, the GI50 is 1.74 µM and the TGI came to 12.7 µM. The corresponding values for `C=C(C)C(=O)O[C@H]1C[C@@]2(C)OC(=CC2=O)/C(C)=C\[C@H]2OC(=O)C(=C)[C@H]12` are 0.622 µM and 1.56 µM.

On to `CCN(CC)CCCC(C)Nc1c2ccc(C)cc2nc2ccc(OC)cc12` (stereo not given), for which the GI50 was 1.28 µM and the TGI is 2.84 µM. As to `COc1cc(Cn2c(-c3nonc3N)nc3ccccc32)ccc1C`, the GI50 was 0.228 µM. Regarding `O=C1CCCN1CC#CCN1CCCC1`, the GI50 is over 100 µM and the TGI was over 100 µM. As for `CCC(C)[C@H]1OC(=O)[C@H](C(C)C)N(C)C(=O)[C@@H](C(C)C)OC(=O)[C@H](C(C)C)N(C)C(=O)[C@@H](C(C)CC)OC(=O)[C@H](C(C)C)N(C)C1=O` (stereo not given in full), the GI50 is 0.44 µM and the TGI turned out to be 1.35 µM. The corresponding values for `CNC(=O)c1cc(-n2ccc3cc(NC(=O)Nc4ccc(N5CCOCC5)c(C(F)(F)F)c4)ccc32)ccn1` are 12.8 µM and over 33.3 µM.
